Results taken from US20240293367A1, “METHODS OF TREATING DISORDERS WITH A […]” (Cybin IRL Limited, priority 2023, published 2024).
Like-named read-outs stand apart in the source and are kept apart here.

Test: Phase I/IIa clinical PK of oral psilocin-d10, plasma, noncompartmental analysis (Cohorts 1-6)
Assay type: in vivo, human
Details: for AUC(0-t) / AUC(0-inf) / Cmax / half-life / Vd/F / Tmax: human, plasma; for AUC(0-t) / AUC(0-inf) / Cmax / half-life / Vd/F: po; for AUC(0-inf): read-out: AUC0-inf Mean (SD); for half-life: read-out: T1/2 Mean (SD) (converted); for Vd/F: read-out: Vz/F Mean (SD); for Tmax: read-out: Tmax Median
Procedure: Phase I/IIa, Randomized, Double-Blind, Placebo-Controlled Study which assesses the safety, tolerability, pharmacokinetics, and pharmacodynamics of multiple ascending oral doses of psilocin-d10 in participants with and without MDD (ClinicalTrials.gov Identifier: NCT05385783). All subjects receiving study medication in Cohorts 1-6 received oral psilocin-d10 powder in solution (0.1M citric acid+Tang orange drink, 30 mL dose in a dose cup) and subjects receiving placebo received a similar volume of Tang orange drink without the psilocin-d10 study drug. All subjects receiving study medication in the relative bioavailability (BA) cohort received powder-filled capsules containing psilocin-d10 benzenesulfonate salt by ingestion with approximately 240 mL room temperature water, or oral psilocin-d10 powder in solution (0.1M citric acid+Tang orange drink, 30 mL dose in a dose cup) in a cross-over design. Psilocin-d10 for the powder in solution dosage form was manufactured by Patheon Pharma Services, with an isotopic purity of 79.89%. Psilocin-d10 benzenesulfonate salt for the powder-filled capsule dosage form was manufactured by Patheon Pharma Services, with an isotopic purity of 85.20%.
Cohorts 1, 4, 5, and 6 of the study was comprised of participants with MDD. Cohorts 2, 3, and the relative BA cohort of the study were comprised of normal healthy volunteers (NHV). […] MDD participants had been on a stable dose of antidepressant medication for at least one month prior to screening with an inadequate response to that antidepressant medication as judged by the Investigator, and continued to receive their prescribed antidepressant throughout the course of the study.
Cohort 1. For Cohort 1, 2 sentinel subjects were randomized and dosed, including 1 subject who received a psilocin-d10 1 mg oral dose and 1 subject who received a placebo dose. After the sentinel subjects were dosed, an additional 2 subjects were dosed, including a replacement subject for one of the sentinel subjects who withdrew consent and one additional subject. In total, four Cohort 1 subjects received a first dose of study medication on Day 1, and 3 subjects received a second dose of study medication on Day 22. For the first dose, 2 subjects received an active psilocin-d10 1 mg dose and 2 subjects received placebo. For the second dose, 3 subjects received an active psilocin-d10 1 mg dose.
Cohort 2. For Cohort 2, 4 subjects were randomized and dosed on Day 1 (2 subjects on one day, 2 subjects on the next day), including 3 subjects who received a psilocin-d10 3 mg oral dose and 1 subject who received a placebo dose. These same 4 subjects were again dosed on Day 8 (2 subjects on one day, 2 subjects on the next day), with all 4 subjects receiving a psilocin-d10 8 mg oral dose (note the actual washout was 11 days between doses).
Cohort 3. For Cohort 3 Day 1, 4 subjects were randomized and dosed on Day 1 (2 subjects on one day, 2 subjects on the next day), including 3 subjects who received a psilocin-do 8 mg oral dose and 1 subject who received a placebo dose. […] Another subject was dosed and left the study after the 2-hour PK sampling and has limited PK samples available for analysis from 0 to 2 hours—this subject's PK data has thus been excluded from the analysis presented hereinafter. For Cohort 3 Day 8, 3 subjects were dosed on Day 8 with a psilocin-d10 10 mg dose (2 sentinel subjects were dosed on one day, 1 non-sentinel subject was dosed on the next day).
Cohorts 4 and 5. For Cohorts 4 and 5, 12 participants each (24 participants total) were randomized in a 3:1 ratio to receive 12 mg of psilocin-d10 or matched placebo in a single dosing session on Day 1. Following a 21-day interval, all participants received a dose of 12 mg psilocin-d10 on Day 22 (second dose for participants originally randomized to psilocin-d10, first dose for participants randomized to placebo), and were followed to Day 42.
Cohort 6. […]

[1] = 8 mg, 8 mg oral, Cohorts 2 and 3 NHV, pooled
[2] = 10 mg, 10 mg oral, Cohort 3 NHV, Day 8
[3] = 12 mg, 12 mg oral, Cohort 4 MDD, Day 1 and Day 22
[4] = 12 mg, 12 mg oral, Cohort 5 MDD, Day 1 and Day 22
[5] = 12 mg, 12 mg oral, Cohorts 4 and 5 MDD, Day 1 and Day 22
[6] = 16 mg, 16 mg oral, Cohort 6 MDD, all subjects incl. 3 with emesis

In the case of `[2H]C([2H])([2H])N(C([2H])([2H])[2H])C([2H])([2H])C([2H])([2H])c1c[nH]c2cccc(O)c12` [psilocin-d10, 3-(2-(bis(methyl-d3)amino)ethyl-1,1,2,2-d4)-1H-indol-4-ol], the AUC(0-t) (8 mg, 8 mg oral, Cohorts 2 and 3 NHV, pooled, 2 subjects excluded, read-out: AUC0-24 Mean (SD)) is reported as 84 ng·h/mL, the AUC(0-inf) [1] is reported as 87.8 ng·h/mL and the AUC(0-t) (8 mg, 8 mg oral, Cohorts 2 and 3 NHV, pooled, read-out: AUClast Mean (SD)) is reported as 84 ng·h/mL. The Cmax (8 mg, 8 mg oral, Cohorts 2 and 3 NHV, pooled, read-out: Cmax Median) was 17.1 ng/mL, the half-life [1] was 5.51 h and the Vd/F [1] was 744 L. The AUC(0-t) (10 mg, 10 mg oral, Cohort 3 NHV, Day 8, read-out: AUC0-24 Mean (SD)) was 101 ng·h/mL, the AUC(0-inf) [2] was 106 ng·h/mL and the AUC(0-t) (10 mg, 10 mg oral, Cohort 3 NHV, Day 8, read-out: AUClast Mean (SD)) was 101 ng·h/mL. The Cmax (10 mg, 10 mg oral, Cohort 3 NHV, Day 8, read-out: Cmax Mean (SD)) was 13.4 ng/mL, the Cmax (10 mg, 10 mg oral, Cohort 3 NHV, Day 8, read-out: Cmax Median) was 10.9 ng/mL and the half-life [2] was 5.12 h. It also gave a Vd/F [2] of 758 L, an AUC(0-t) (12 mg, 12 mg oral, Cohort 4 MDD, Day 1 and Day 22, read-out: AUC0-24 Mean (SD)) of 155 ng·h/mL and an AUC(0-inf) [3] of 165 ng·h/mL. The AUC(0-t) (12 mg, 12 mg oral, Cohort 4 MDD, Day 1 and Day 22, read-out: AUClast Mean (SD)) was 154 ng·h/mL, the Cmax (12 mg, 12 mg oral, Cohort 4 MDD, Day 1 and Day 22, read-out: Cmax Mean (SD)) was 19.7 ng/mL and the Cmax (12 mg, 12 mg oral, Cohort 4 MDD, Day 1 and Day 22, read-out: Cmax Median) was 18.6 ng/mL. For the same compound, the half-life [3] was 5.62 h, the Vd/F [3] was 668 L and the AUC(0-t) (12 mg, 12 mg oral, Cohort 5 MDD, Day 1 and Day 22, read-out: AUC0-24 Mean (SD)) was 137 ng·h/mL. The AUC(0-inf) [4] was 144 ng·h/mL, the AUC(0-t) (12 mg, 12 mg oral, Cohort 5 MDD, Day 1 and Day 22, read-out: AUClast Mean (SD)) was 137 ng·h/mL and the Cmax (12 mg, 12 mg oral, Cohort 5 MDD, Day 1 and Day 22, read-out: Cmax Mean (SD)) was 16.9 ng/mL. It also gave a Cmax (12 mg, 12 mg oral, Cohort 5 MDD, Day 1 and Day 22, read-out: Cmax Median) of 14.8 ng/mL, a half-life [4] of 5.08 h and a Vd/F [4] of 666 L. For the same compound, the AUC(0-t) (12 mg, 12 mg oral, Cohorts 4 and 5 MDD, Day 1 and Day 22, read-out: AUC0-24 Mean (SD)) was 146 ng·h/mL, the AUC(0-inf) [5] was 155 ng·h/mL and the AUC(0-t) (12 mg, 12 mg oral, Cohorts 4 and 5 MDD, Day 1 and Day 22, read-out: AUClast Mean (SD)) was 145 ng·h/mL. The Cmax (12 mg, 12 mg oral, Cohorts 4 and 5 MDD, Day 1 and Day 22, read-out: Cmax Mean (SD)) was 18.2 ng/mL, the Cmax (12 mg, 12 mg oral, Cohorts 4 and 5 MDD, Day 1 and Day 22, read-out: Cmax Median) was 16.2 ng/mL and the half-life [5] was 5.35 h. The Vd/F [5] was about 667 L, the Cmax (16 mg, 16 mg oral, Cohort 6 MDD, Day 1 and Day 22, all subjects incl. 3 with emesis, read-out: Cmax Mean (SD)) was 19.8 ng/mL and the AUC(0-t) (16 mg, 16 mg oral, Cohort 6 MDD, all subjects incl. 3 with emesis, read-out: AUC0-24 Mean (SD)) was 155 ng·h/mL. For the same compound, the AUC(0-inf) [6] was 161 ng·h/mL, the AUC(0-t) (16 mg, 16 mg oral, Cohort 6 MDD, all subjects incl. 3 with emesis, read-out: AUClast Mean (SD)) was 151 ng·h/mL and the Cmax (16 mg, 16 mg oral, Cohort 6 MDD, all subjects incl. 3 with emesis, read-out: Cmax Median) was 17.4 ng/mL. For the same compound, the half-life [6] was 5.57 h, the Vd/F [6] was 986 L and the Tmax (1 mg oral, Cohort 1 MDD, Day 1 and Day 22 pooled) was 1 h. For the same compound, the Tmax (3 mg oral, Cohort 2 NHV, Day 1) was 2 h, the Tmax (8 mg oral, Cohorts 2 and 3 NHV, pooled) was 2 h and the Tmax (10 mg oral, Cohort 3 NHV, Day 8) was 1 h. For the same compound, the Tmax (12 mg oral, Cohorts 4 and 5 MDD, Day 1 and Day 22) was 1.03 h, the Tmax (16 mg oral, Cohort 6 MDD, all subjects incl. 3 with emesis) was 1.03 h and the “mean clearance (CL/F), on average” value (range of means, 1 to 10 mg doses) was 85.22 to 104.7 L/h.
